Test results taken from ChEMBL document CHEMBL1146226, “Synthesis of desformylflustrabromine and its evaluation as an alpha4beta2 and alpha7 nACh receptor modulator” (Bioorg Med Chem Lett, 2007).

Columns and labels:
[1] = target: Neuronal acetylcholine receptor subunit alpha-7 (Homo sapiens, UniProt P36544); assay: Activity at human alpha7 nACh receptor expressed in Xenopus oocytes assessed as inhibition of acetyl chlone-induced currents by two-electrode voltage clamp method; assay type: cell-based, Oocyte
[2] = target: T1, Neuronal acetylcholine receptor; alpha4/beta2 (Homo sapiens, UniProt P17787+P43681); assay: Activity at human alpha-4-beta-2 nACh receptor expressed in Xenopus oocytes assessed as potentiation of acetyl chlone-induced currents by two-electrode voltage clamp method relative to control; assay type: cell-based; details: Oocyte
[3] = target: T1, Neuronal acetylcholine receptor; alpha4/beta2; assay: Activity at human alpha-4-beta-2 nACh receptor expressed in Xenopus oocytes assessed as inhibition of acetyl chlone-induced currents by two-electrode voltage clamp method; assay type: cell-based, Oocyte

Neuronal acetylcholine receptor subunit alpha-7, sequence (P36544 whole entry): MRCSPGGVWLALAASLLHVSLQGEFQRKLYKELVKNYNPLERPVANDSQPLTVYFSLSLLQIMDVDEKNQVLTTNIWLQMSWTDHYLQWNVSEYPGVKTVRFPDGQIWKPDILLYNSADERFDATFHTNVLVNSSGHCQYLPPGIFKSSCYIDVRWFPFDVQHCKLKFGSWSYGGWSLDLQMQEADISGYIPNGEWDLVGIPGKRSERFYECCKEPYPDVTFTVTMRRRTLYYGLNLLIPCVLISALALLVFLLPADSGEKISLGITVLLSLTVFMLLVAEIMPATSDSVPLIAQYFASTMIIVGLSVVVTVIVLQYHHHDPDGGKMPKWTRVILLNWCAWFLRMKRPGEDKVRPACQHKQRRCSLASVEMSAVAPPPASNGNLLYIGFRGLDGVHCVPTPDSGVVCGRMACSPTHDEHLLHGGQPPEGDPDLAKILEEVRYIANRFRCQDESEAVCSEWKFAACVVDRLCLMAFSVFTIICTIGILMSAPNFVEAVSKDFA
T1 sequence (P17787 whole entry): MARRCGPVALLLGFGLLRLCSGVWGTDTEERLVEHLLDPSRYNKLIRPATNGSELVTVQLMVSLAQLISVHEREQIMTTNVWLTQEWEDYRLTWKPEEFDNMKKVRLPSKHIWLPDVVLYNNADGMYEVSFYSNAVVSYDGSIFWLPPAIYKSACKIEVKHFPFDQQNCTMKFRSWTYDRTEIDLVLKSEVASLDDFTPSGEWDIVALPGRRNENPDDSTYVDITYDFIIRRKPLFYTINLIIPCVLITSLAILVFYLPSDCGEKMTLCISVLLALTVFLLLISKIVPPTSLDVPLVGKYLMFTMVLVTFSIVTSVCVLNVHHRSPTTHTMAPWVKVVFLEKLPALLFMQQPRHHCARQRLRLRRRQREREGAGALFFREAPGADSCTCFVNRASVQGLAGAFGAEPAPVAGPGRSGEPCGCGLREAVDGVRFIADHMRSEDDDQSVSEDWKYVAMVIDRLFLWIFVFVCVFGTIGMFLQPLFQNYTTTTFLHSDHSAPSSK
T1 sequence (P43681 whole entry): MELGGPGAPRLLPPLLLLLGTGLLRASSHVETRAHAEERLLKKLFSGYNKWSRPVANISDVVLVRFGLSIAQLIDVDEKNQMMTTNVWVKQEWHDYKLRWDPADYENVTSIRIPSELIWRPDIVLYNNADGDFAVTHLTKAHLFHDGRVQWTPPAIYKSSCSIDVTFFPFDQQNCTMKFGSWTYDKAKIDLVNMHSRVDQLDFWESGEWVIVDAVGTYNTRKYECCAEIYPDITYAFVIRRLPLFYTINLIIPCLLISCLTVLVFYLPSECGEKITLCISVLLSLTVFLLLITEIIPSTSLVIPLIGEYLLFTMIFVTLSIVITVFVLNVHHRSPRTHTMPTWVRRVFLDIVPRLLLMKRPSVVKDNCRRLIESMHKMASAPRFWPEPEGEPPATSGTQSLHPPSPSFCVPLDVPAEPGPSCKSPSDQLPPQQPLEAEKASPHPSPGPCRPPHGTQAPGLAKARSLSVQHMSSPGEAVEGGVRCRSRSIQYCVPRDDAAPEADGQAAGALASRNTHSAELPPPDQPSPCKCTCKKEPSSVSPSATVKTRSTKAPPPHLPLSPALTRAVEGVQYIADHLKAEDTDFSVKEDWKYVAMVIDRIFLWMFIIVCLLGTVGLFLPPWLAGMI

Compound	IC50 [1]	Activity [2]	IC50 [3]
CNCCc1cn(CC=C(C)C)c2cc(Br)ccc12 [DEFORMYLFLUSTRABROMINE B]	209 µM		
C=CC(C)(C)c1[nH]c2cc(Br)ccc2c1CCNC [DESFORMYLFLUSTRABROMINE]	44 µM	295%	150 µM
